Like-named read-outs stand apart in the source and are kept apart here.
Assays:
[1] = test system: HCC827 human non-small cell lung cancer (NSCLC) cells; assay type: in vivo; details: day 40, SCID mice
Source text: (§1) Animals were housed 4-5/cage in micro-isolators, with a 12 hr/12 hr light/dark cycle, acclimated for at least 1 week prior to use and fed normal laboratory chow ad libitum.

[2] = test system: NCI-H1975 non-small cell lung carcinoma cells; assay: Single agent IC50, alamarBlue cell viability (Example 3), NCI-H1975; assay type: cell-based, human; details: XLFit
Method: (§2) Cell viability was measured using the alamarBlue assay. In brief, cells were plated in 96-well plates in triplicate at 2000 cells per well (H1975) or 5000 cells per well (HEL92.1.7) and incubated at 37° C., 5% CO2 atmosphere for 24 hr prior to the addition of drug or vehicle (0.3% DMSO) to the culture medium. After 72 hr, 10 μl/well alamarBlue was added to the wells and incubated for an additional 3 hr at 37° C., 5% CO2 atmosphere. Fluorescence (560EX/590EM […]) was measured with a SpectraMax microplate reader (Molecular Devices) and the resulting data were used to calculate cell viability, normalized to vehicle control. […] After 72 hr exposure to drug, cell viability was measured.

[3] = test system: H1975 cells; assay: Single agent IC50 in H1975 cells, alamarBlue viability (Example 2); assay type: cell-based, human; details: XLFit
Method: After 72 h exposure to either drug, viability was determined by alamarBlue, data from which was used to calculate the IC50 values using XLFit software (ID Business Solutions).

[4] = test system: HEL92.1.7 erythroleukemia cells; assay: Single agent IC50, alamarBlue cell viability (Example 3), HEL92.1.7; assay type: cell-based, human; details: XLFit
Method: as §2

[5] = test system: human NSCLC cell line NCI-H1975; assay type: in vivo; details: 3 doses, day 32, SCID mice
Method: FBS was obtained from ATCC and all other reagents were obtained from Invitrogen Corp. (Carlsbad, Calif., USA). Cells that had been cryopreserved in liquid nitrogen were rapidly thawed at 37° C. and transferred to a tissue culture flask containing growth media and then incubated at 37° C. in a 5% CO2 incubator. […] To inactivate the trypsin, 5 mL of growth media was added and then the contents of the flask were centrifuged to pellet the cells. The supernatant was aspirated and the cell pellet was resuspended in 10 mL of growth media and the cell number determined using a hemocytometer. Cells were seeded into 175 cm^2 flasks containing 50 mL of growth media and incubated at 37° C. in a 5% CO2 incubator.
as §1

[6] = test system: HT29 colon cancer cells; assay: Single agent IC50, alamarBlue cell viability (Example 3), HT29; assay type: cell-based, human; details: XLFit
[7] = 72 hr exposure, read-out: Single agent IC50 values, HEL-92.1.7

SMILES | % T/C value ([1]; Compound 1 75 mg/kg 1×/week) | IC50 ([2]; Homo sapiens, NCI-H1975, 72 hr exposure) | IC50 ([3]; Homo sapiens, NCI-H1975, 72 h exposure) | IC50 ([4]; Homo sapiens, HEL 92.1.7, 72 hr exposure) | % T/C value ([5]; Compound 1 50 mg/kg i.v. 1 time per week) | IC50 ([6]; Homo sapiens, HT-29, 72 hr exposure) | % T/C value ([1]; docetaxel 4 mg/kg 1×/week) | IC50 ([2]; 72 hr exposure) | IC50 [4, 7] | IC50 ([6]; 72 hr exposure) | IC50 ([3]; 72 h exposure) | % T/C value ([5]; paclitaxel 7.5 mg/kg i.v. 1 time per week)
CC(C)c1cc(-c2nnc(O)n2-c2ccc3c(ccn3C)c2)c(O)cc1O [Compound 1, 3-(2,4-dihydroxy-5-isopropyl-phenyl)-4-(1-methyl-indol-5-yl)-5-hydroxy-[1,2,4] triazole] | 26% | 13 nM | 15 nM | 32 nM | 55% | 36 nM | – | – | – | – | – | –
CC(=O)O[C@@]12CO[C@@H]1C[C@H](O)[C@@]1(C)C(=O)[C@H](O)C3=C(C)[C@@H](OC(=O)[C@H](O)[C@@H](NC(=O)OC(C)(C)C)c4ccccc4)C[C@@](O)([C@@H](OC(=O)c4ccccc4)[C@H]21)C3(C)C [docetaxel] | – | – | – | – | – | – | 46% | 1 nM | 14 nM | 0.6 nM | – | –
CC(=O)O[C@H]1C(=O)[C@@]2(C)[C@H]([C@H](OC(=O)c3ccccc3)[C@]3(O)C[C@H](OC(=O)[C@H](O)[C@@H](NC(=O)c4ccccc4)c4ccccc4)C(C)=C1C3(C)C)[C@]1(OC(C)=O)CO[C@@H]1C[C@@H]2O [paclitaxel] | – | – | – | – | – | – | – | 4 nM | 25 nM | – | 7 nM | 38%
